Reference: publication PMC4532424, “The Novel Cyclophilin Inhibitor CPI-431-32 Concurrently Blocks HCV and HIV-1 Infections via a Similar Mechanism of Action” (PLoS ONE, 2015)
Like-named read-outs stand apart in the source and are kept apart here. Non-standard residues stand in square brackets, D forms with d. Residues, ends and D or L forms follow the SMILES beside them. NMeThr(4R-Me,4-(CH2)6NHAc) = CN[C@H](C(=O)O)[C@H](O)[C@H](C)CCCCCCNC(C)=O; NMeL = CN[C@@H](CC(C)C)C(=O)O; NMeV = CN[C@H](C(=O)O)C(C)C; dNMeA = CN[C@H](C)C(=O)O; Abu = CC[C@H](N)C(=O)O

Experiments:
[1] = system: HCV NS5A-resistant (L31V); test: HCV Luc-Con1 replicon replication in Huh7.5 cells, luciferase; format: cell-based; settings: read-out: EC50, inhibition of HCV replication
Procedure: (§1) The GT1b subgenomic firefly luciferase reporter replicon pFK-I389/NS3–3 was provided by R. Bartenschlager. The GT1B subgenomic NS3 (R155Q/A156T), NS5A (L31V, D320E/Y321N, S328P and P313A/P318A), and NS5B (S282T) mutants were created as previously. Half-maximal effective concentration (EC50) measurements were conducted as previously.
(§2) We took advantage of the DAA-resistant HCV genotype 1b Con1 replicons that we previously generated: the NS3 inhibitor-resistant R155Q/A156T NS3, the NS5A inhibitor-resistant L31V NS5A replicon, and the NS5B inhibitor-resistant S282T NS5B replicons. […] EC50 HCV data are expressed in nM whereas EC50 HIV-1 data are expressed in μM.

HCV wild-type (Con1b) = test: as above; format: cell-based; settings: 72 h, read-out: EC50, inhibition of HCV replication
Procedure: as §1, §2

[2] = system: HCV NS3-resistant (R155Q/A156T); test: as above; format: cell-based; settings: read-out: EC50, inhibition of HCV replication
Procedure: as §1, §2

[3] = system: HCV CsA-sensitive (P313A/P318A); test: as above; format: cell-based; settings: read-out: EC50, inhibition of HCV replication
Procedure: as §1, §2

[4] = system: HCV ALV-resistant (D320E/Y321N); test: as above; format: cell-based; settings: read-out: EC50, inhibition of HCV replication
Procedure: as §1, §2

[5] = system: HCV NS5B-resistant (S282T); test: as above; format: cell-based; settings: read-out: EC50, inhibition of HCV replication
Procedure: as §1, §2

[6] = system: HCV CsA-sensitive (S328P); test: as above; format: cell-based; settings: read-out: EC50, inhibition of HCV replication
Procedure: as §1, §2

[7] = target: CypA-HIV-1 capsid complex (Homo sapiens, UniProt P62937); test: CypA-HIV-1 capsid interaction ELISA; format: binding; settings: 16 h at 4°C
Procedure: (§3) Recombinant GST-CypA, full-length HCV NS5A Con1 (pET-Ub-NS5A Con1-His) and HIV-1 capsid NL4.3 (pET-capsid-His) were expressed and purified as described previously. Inhibition of CypA-HCV NS5A and CypA-HIV-1 capsid interactions by the CypI […] were conducted as we described previously.
(§4) CypI are thought to inhibit the infection of HIV-1 and HCV mostly by preventing CypA-HIV-1 capsid and CypA-HCV NS5A interactions, respectively. The potency of CypI at inhibiting these interactions was determined using an ELISA assay previously developed in our laboratory. For analyzing CypA-HCV NS5A interactions, recombinant NS5A-His was added to GST-CypA-coated wells for 16 h at 4°C in the absence or presence of CypI, followed by detection of captured NS5A-His with anti-His antibodies. A similar assay was used for CypA-HIV-1 interactions except with recombinant His-tagged HIV-1 capsid.

HIV-1 JR-CSF [8] = test: HIV-1/HCV co-culture co-infection, HIV-1 p24 ELISA; format: cell-based
Procedure: (§5) CD4+ T-lymphocytes and Huh7.5.1 cells uninfected or infected for 3 h as described above were mixed in a single flask and HIV-1 and HCV replication monitored over a period of 3 weeks as described above.
(§6) HIV-1 target cells—CD4+ T-lymphocytes—and HCV target cells—hepatoma cells—were placed in a single chamber (flask), exposed to both HIV-1 and HCV, and viral replication monitored over time by p24 capsid and core ELISAs, respectively.
(§7) CD4+ T-lymphocytes (A) and Huh7.5.1 cells (B) (0.5 x 10^6 cells) (triplicates) were exposed to HIV-1 JR-CSF and HCV JFH-1. Drugs (2 μM) were added 3 h pre-viral exposure (top panels) or 3 days post-viral exposure (bottom panels). Viral replications were monitored by HIV-1 p24 and HCV core ELISAs. C. CD4+ T-lymphocytes (0.5 x 10^6 cells) (triplicates) were exposed to HIV-1 JR-CSF. Drugs were initially added 3 days post-viral exposure (2 μM) and then daily (0.5 μM). Viral replications were monitored by HIV-1 p24 and HCV core ELISAs. […] D. Model for the HIV-1/HCV co-culture system.

CypA-HCV NS5A complex = CypA-HCV NS5A complex (Homo sapiens, UniProt P62937); test: CypA-HCV NS5A interaction ELISA; settings: Table 2; NS5A-His on GST-CypA-coated plates, 16 h at 4°C; read-out: IC50, inhibition of NS5A binding to CypA
Procedure: as §3, §4

HCV JFH-1 = test: HIV-1/HCV co-culture co-infection, HCV core ELISA; format: cell-based
Procedure: as §5, §6, §7

HIV-1 JR-CSF [9] = test: HIV-1 mono-infection of CD4+ T-lymphocytes, p24 ELISA; format: cell-based; settings: Fig 1A
Text: Hemoglobin determinations at every donation protect the donor from phlebotomy-induced anemia. The donor pool also provides investigators with a mix of gender and minority subjects, and recruitment is ongoing for underrepresented minorities. At the present time, the NBDS has 320 active normal blood donors enrolled. Use of the Normal Blood Donor Service is considered “human subjects” research and each investigator who wants to use the service must submit a protocol to the IRB for review and approval. Dr. Gallay has current IRB approval for the human blood obtained for research described in this manuscript. Protocol No: IRB-15-6552. Full name of the IRB is "Scripps IRB". […] Consent from blood donors was obtained verbally. The authors have no access to identifying donor information for these samples.

Human recombinant CypA = target: T1, Human recombinant CypA (Homo sapiens, UniProt P62937); test: α-chymotrypsin-coupled CypA isomerase inhibition assay; format: biochemical; settings: one representative experiment, mean ± SD; 10 nM CypA, 5°C
T1 construct: purchased Atgen
Procedure: Succinyl-AAPF-pNA peptide substrate (Sigma) was dissolved to 3.2 mM in dried LiCl/trifluoroethanol. […] All solutions were equilibrated, and reactions conducted at 5°C. Reactions were initiated by mixing 95 μL reaction mix with 5 μL peptide preloaded in multiple wells of 96-well plates and measuring OD405 nm in each well at 6-sec intervals for 6 min using a BMG Polarstar Galaxy plate reader. Data were fitted with Graphpad Prism 6.0 to obtain first-order rate constants.

[10] = drug treatments begun 3 h before virus addition
[11] = single dose added 3 days post-infection
[12] = Hepatitis C virus, Huh7.5, 72 h

Chain of CypA-HIV-1 capsid complex (P62937 whole entry, one chain of several): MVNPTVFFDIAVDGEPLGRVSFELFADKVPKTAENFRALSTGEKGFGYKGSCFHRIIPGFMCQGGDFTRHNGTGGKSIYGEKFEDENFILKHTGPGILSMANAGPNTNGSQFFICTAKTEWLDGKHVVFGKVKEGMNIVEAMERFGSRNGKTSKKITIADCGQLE
T1 sequence (P62937 whole entry): as the sequence (P62937 whole entry, one chain of several) above
Chain of CypA-HCV NS5A complex (P62937 whole entry, one chain of several): as above

SMILES: CC[C@@H]1NC(=O)[C@H]([C@H](O)[C@H](C)CCCCCCNC(C)=O)N(C)C(=O)[C@H](C(C)C)N(C)C(=O)[C@H](CC(C)C)N(C)C(=O)[C@H](CC(C)C)N(C)C(=O)[C@@H](C)NC(=O)[C@H](C)NC(=O)[C@H](CC(C)C)N(C)C(=O)[C@H](C(C)C)NC(=O)[C@H](CC(C)C)N(C)C(=O)[C@@H](C)N(C)C1=O [CPI-431-32] (cyclo(A[dA][NMeL][NMeL][NMeV][NMeThr(4R-Me,4-(CH2)6NHAc)][Abu][dNMeA][NMeL]V[NMeL]))
- EC50 ([1]; HCV NS5A-resistant (L31V) replicon, Huh7.5 cells, 72 h): 8.9 ± 0.4 nM
- EC50 (HCV wild-type (Con1b)): 9.3 ± 0.4 nM
- EC50 ([2]; HCV NS3-resistant (R155Q/A156T) replicon, Huh7.5 cells, 72 h): 11.3 ± 0.2 nM
- EC50 ([3]; HCV CsA-sensitive (P313A/P318A) replicon, Huh7.5 cells, 72 h): 4.7 ± 0.2 nM
- EC50 ([4]; HCV ALV-resistant (D320E/Y321N) replicon, Huh7.5 cells, 72 h): 26.5 ± 3.2 nM
- EC50 ([5]; HCV NS5B-resistant (S282T) replicon, Huh7.5 cells, 72 h): 8.3 ± 0.4 nM
- EC50 ([6]; HCV CsA-sensitive (S328P) replicon, Huh7.5 cells, 72 h): 5.1 ± 0.3 nM
- IC50 ([7]; read-out: IC50, inhibition of CypA-HIV-1 capsid interactions): 210 ± 10 nM
- IC50 ([7]; Table 2, capsid-His on GST-CypA-coated plates, read-out: IC50, inhibition of capsid binding to CypA): 230 ± 10 nM
- Effect on HIV-1 replication (in words) (HIV-1 JR-CSF [8]; [10]): totally prevented HIV-1 replication
- Effect on HIV-1 replication (in words) (HIV-1 JR-CSF [8]; [11]): halted HIV-1 replication
- IC50 (CypA-HCV NS5A complex): 180 ± 30 nM
- Effect on HCV replication (in words) (HCV JFH-1; [10]): completely prevented
- Effect on HCV replication (in words) (HCV JFH-1; [11]): immediately and gradually caused a decline in HCV levels
- Effect on HIV-1 replication (in words) (HIV-1 JR-CSF [9]): efficiently blocked viral growth
- IC50 (Human recombinant CypA): 1.8 ± 0.6 nM

SMILES: C/C=C/C[C@@H](C)[C@@H](O)[C@H]1C(=O)N[C@@H](CC)C(=O)N(C)[C@H](C)C(=O)N(CC)[C@@H](C(C)C)C(=O)N[C@@H](C(C)C)C(=O)N(C)[C@@H](CC(C)C)C(=O)N[C@@H](C)C(=O)N[C@H](C)C(=O)N(C)[C@@H](CC(C)C)C(=O)N(C)[C@@H](CC(C)C)C(=O)N(C)[C@@H](C(C)C)C(=O)N1C [ALV, Alisporivir]
- EC50 [1, 12]: 16.5 ± 2.1 nM
- EC50 (HCV wild-type (Con1b); Hepatitis C virus): 16.6 ± 0.8 nM
- EC50 [2, 12]: 17.7 ± 1.9 nM
- EC50 [3, 12]: 5.2 ± 0.6 nM
- EC50 [4, 12]: 44.2 ± 5.8 nM
- EC50 [5, 12]: 15.6 ± 2.4 nM
- EC50 [6, 12]: 5.6 ± 1.1 nM
- IC50 ([7]; IC50, inhibition of CypA-HIV-1 capsid interactions): 410 ± 50 nM
- IC50 ([7]; IC50, inhibition of capsid binding to CypA, Table 2, capsid-His on GST-CypA-coated plates): 420 ± 110 nM
- Effect on HIV-1 replication (in words) (HIV-1 JR-CSF [8]; [10]): totally prevented HIV-1 replication
- Effect on HIV-1 replication (in words) (HIV-1 JR-CSF [8]; [11]): a small degree of replication occurred within the first 3 days of addition
- IC50 (CypA-HCV NS5A complex): 420 ± 50 nM
- Effect on HCV replication (in words) (HCV JFH-1; [10]): completely prevented
- Effect on HCV replication (in words) (HCV JFH-1; [11]): immediately and gradually caused a decline in HCV levels
- Effect on HIV-1 replication (in words) (HIV-1 JR-CSF [9]): efficiently blocked viral growth
- IC50 (Human recombinant CypA): 2.8 ± 0.4 nM
